One data set relates to whole rat bladder. Nature of the data set: Relaxation of whole rat bladder ex-vivo (partial outlet obstruction, developed bladder pressure). Details: species or system Spraque-Dawley rats. The settings on record: isolated whole bladder of rats 6 weeks after partial outlet obstruction, 30 minute challenge. Here is the method: Several compound in this invention were tested for their ability to relax a whole rat bladder ex-vivo. The protocol for this assay is as follows.
Female Spraque-Dawley rats weighing between 200-300 g were anesthetized with Nembutol® (50 mg/kg, i.p.). After achieving adequate anesthesia, the bladder and urethra were exposed through a mid-line incision. A 4-0 silk ligature was tied around the proximal end of the urethra in the presence of a 1 mm diameter stainless steel rod. The rod was then removed resulting in a partial outlet obstruction. The wound was closed with surgical staples and the animals received 15,000 units of Bicillin® antibiotic. After a 6 week period the animals were asphyxiated with CO2 gas. Bladders for contractile analysis were placed in a physiological salt solution (PSS) at 37° C. of the following composition (in mM): NaCl (118.4), KCl (4.7), CaCl2 (2.5), MgSO4 (1.2), KH2PO4 (1.2), NaHCO3 (24.9) and D-glucose (11.1) gassed with […] to achieve a pH of 7.4.
The isolated bladders were secured through the urethral opening with a silk ligature to a length of polyethylene tubing (PE-200). […]
Following stabilization, incremental increases in the concentration of test compound or vehicle are introduced into the tissue bath. Contractile activity is measured for each compound or vehicle concentration during the last minute of a 30 minute challenge.

The next data set has as its system Aorta Tissue. Put plainly: Relaxation of KCl-contracted isolated rat thoracic aortic rings (contractile force). Details: species or system Sprague-Dawley rats. Particulars: for IC50: Rattus norvegicus; for Ratio Aorta IC50 / Bladder IC50: aorta IC50 divided by bladder IC50, tissue selectivity. Here is the method: The smooth muscle (aorta) relaxing activity of the compounds of this ivention was established in accordance with standard pharmaceutically accepted test procedures with representative compounds as follows.
Male Sprague-Dawley rats (150-200 g) are rendered unconscious by CO2 asphyxiation and then euthanized by cervical dislocation. The thoracic aorta is removed into warm (37° C.) physiological sial solution (PSS) of the following composition (mM): NaCl, 118.4; KCl, 4.7; CaCl2, 2.5; MgSO4.7H2O, 1.2; NaHCO3, 24.9; KH2PO4, 1.2; glucose, 11.1; EDTA, 0.023; gassed with 95% O2/5% CO2; pH 7.4. The aorta is cleaned of fat and loose adventitia and cut into rings 3-4 mm in width. The rings are subsequently suspended between two stainless steel wire tissue holders in a 10 mL tissue bath. One wire tissue holder is attached to a fixed hook while the other is attached to an isometric force transducer. Resting tension is set at 1 g. The tissues are to recover for a period of 60 min prior to beginning the experiment. Tissues are challenged with PSS containing 25 mM KCl to elicit a contracture. The tissues are then washed repeatedly with fresh PSS over a period of 30 min and allowed to recover to baseline tension. PSS containing 30-35 mM KCl is then introduced into the tissue bath to evoke a contracture that is allowed to stabilize for not less than 45 min. (Other stimuli such as norepinephrine, PGF2a, histamine, angiotensin II, endothelin or PSS containing 80 mM KCl may also be used to evoke a contracture as necessary). Increasing concentrations of test compound or vehicle are then added to the tissue bath in a cumulative fashion.
Isometric force development by the aortic rings is measured using a force transducer and recorded on a polygraph. The percentage inhibition of contractile force evoked by each concentration of a given test compound is used to generate a concentration-response curve. […] [Log concentration versus response curves are approximately linear between 20% and 80% of the maximum response. As such, the IC50 concentration of the drug is determined by linear regression analysis (where x=log concentration and y=% inhibition) of the data points in the 20% to 80% region of the curve.] […] Data collected from 2 animals are averaged for primary screens.

The next data set has as its system Bladder Tissue. Put plainly: Relaxation of KCl-stimulated isolated rat bladder strips (contractile activity). Details: species or system Sprague-Dawley rats. The settings on record: Rattus norvegicus, 0.5 h. Here is the method:
Sprague-Dawley rats (150-200 g) are rendered unconscious by CO2 asphyxiation and then euthanized by cervical dislocation. The bladder is removed into warm (37° C.) physiological salt solution (PSS) of the following composition (mM): NaCl, 118.4; KCl, 4.7; CaCl2, 2.5; […]; NaHCO3, 24.9; KH2PO4, 1.2; glucose, 11.1; EDTA, 0.023; gassed with 95% O2; […]; pH 7.4. The bladder is opened and then cut into strips 1-2 mm in width and 7-10 mm in length. The strips are subsequently suspended in a 10 mL tissue bath under an initial resting tension of 1.5 g. The strips are held in place by two surgical clips one of which is attached to a fixed hook while the other is attached to an isometric force transducer. […] The carbachol is then washed out and the tissue allowed to relax to its resting level of activity. Following a further 30 min period of recovery an additional 15 mM KCl re introduced into the tissue bath. […] Following stabilization of this enhanced level of contractile activity, incremental increases in the concentration of test compound or vehicle are introduced into the tissue bath. Contractile activity is measured for each compound or vehicle concentration during the last minute of a 30 minute challenge.

The structures appear in SMILES notation.

As a reminder, the IC50 is the concentration that gives 50% inhibition. For orientation: melting point means the temperature of the solid-liquid transition. Take `CC1(C)c2ccc([N+](=O)[O-])cc2-c2[nH]c3c(C(=O)O)cccc3c21` [Example 24, 10,10-Dimethyl-3-nitro-5,10-dihydro-indeno[1,2-b]indole-6-carboxylic acid]: the melting point is 310 °C (dec.). Also, it took 5 µM to reach half-maximal inhibition in the data set on whole rat bladder (IC50). In addition, in the data set on Aorta Tissue, the IC50 came to 17.2 ± 2.3 µM and the “Ratio Aorta IC50 / Bladder IC50” value was 3.3. In the data set on Bladder Tissue, the IC50 worked out at 5.2 ± 1.8 µM.
Take `O=C(O)c1cccc2c1Cc1c-2[nH]c2ccc(Br)cc12` [Example 25, 8-Bromo-5,10-dihydro-indeno[1,2-b]indole-1-carboxylic acid]: the melting point was 328 to 330 °C (dec.). In the data set on Aorta Tissue, the half-inhibitory concentration (IC50) came out at 110 ± 12.4 µM and the “Ratio Aorta IC50 / Bladder IC50” value is 25. In the data set on Bladder Tissue, this compound returned an IC50 of 4.4 ± 0.95 µM.

The values above are taken from patent publication US6391902B1, “Substituted benzofuranoindoles and indenoindoles as novel potassium channel openers” (American Home Products Corporation, priority 1998, dated 2002).
